Legend:
[1] = biological target: HCV NS5B RNA-dependent RNA polymerase (1b-BKΔ55) (Hepatitis C virus genotype 1b (isolate BK) (HCV), UniProt P26663); experiment: biochemical
[2] = tested on: human cryopreserved hepatocyte; format: in vitro ADME; conditions: human hepatocytes, NTP level over Ki
Experimental: A 2 mM stock solution of the prodrug test compound is prepared in 5% DMSO/95% MeOH to provide a final sample concentration of 10 μM. A 5 μL aliquot is removed from this stock solution and added to 1 mL of either a rat or human cryopreserved hepatocyte sample to provide a control sample at a concentration of 1 million cells/mL. This sample is assayed in triplicate and used as a test sample.
Human and rat hepatocytes are removed from liquid nitrogen storage and thawed by submerging the hepatocyte tube into a pre-heated 37° C. waterbath and gently shaking the tube back & forth until thawed. The thawed hepatocytes are then gently poured into a container of Hepatocyte Basal Medium (50 mL, pre-warmed to 37° C.) and washed. […]
A 1 mL aliquot is removed from the 1 million cells/mL final hepatocyte suspension, analyzed in triplicate and placed into 20 mL scintillation vial without a cap. […]
The incubated hepatocyte suspension samples are transferred to a micro-centrifuge tube using a transfer pipette and centrifuged at 500 rpm for 4 minutes at room temperature. […] The resulting extract solution is then stored in a refrigerator at 4° C. until ready for use, at which point the sample is first subjected to vortexing/sonication to ensure that all hepatocyte cells have burst. […]

Sequence of HCV NS5B RNA-dependent RNA polymerase (1b-BKΔ55) (P26663 2420-2955): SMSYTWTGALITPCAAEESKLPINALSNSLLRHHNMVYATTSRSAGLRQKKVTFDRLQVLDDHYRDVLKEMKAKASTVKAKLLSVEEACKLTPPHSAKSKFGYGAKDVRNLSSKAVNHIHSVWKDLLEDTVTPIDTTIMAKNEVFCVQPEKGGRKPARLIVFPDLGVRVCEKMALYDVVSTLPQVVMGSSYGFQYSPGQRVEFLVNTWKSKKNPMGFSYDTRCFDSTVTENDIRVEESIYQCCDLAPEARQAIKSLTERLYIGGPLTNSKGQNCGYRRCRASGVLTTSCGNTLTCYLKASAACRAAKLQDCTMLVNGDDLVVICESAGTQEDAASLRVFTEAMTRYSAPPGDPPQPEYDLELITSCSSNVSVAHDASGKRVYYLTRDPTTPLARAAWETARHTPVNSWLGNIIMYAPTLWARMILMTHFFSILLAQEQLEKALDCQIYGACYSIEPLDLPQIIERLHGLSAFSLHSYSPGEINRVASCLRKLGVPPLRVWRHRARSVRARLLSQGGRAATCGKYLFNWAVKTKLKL

| Structure (SMILES) | IC50 [1] [nM] | Human Hepatocyte NTP (4 hour at 10 μM)/Ki [2] [x] |
| --- | --- | --- |
| C[C@@]1(N)[C@H](O)[C@@H](COP(=O)(O)OP(=O)(O)OP(=O)(O)O)O[C@H]1n1cnc2c(=O)[nH]c(N)nc21 [Compound 80] | 600 |  |
| C[C@@]1(N)[C@H](O)[C@@H](COP(=O)(O)OP(=O)(O)OP(=O)(O)O)O[C@H]1n1ccc(N)nc1=O [Compound 81] | 2300 |  |
| C[C@@]1(N)[C@H](O)[C@@H](COP(=O)(O)OP(=O)(O)OP(=O)(O)O)O[C@H]1n1ccc(=O)[nH]c1=O [Compound 82] | 13000 |  |
| CCOC(=O)[C@H](C)NP(=O)(OC[C@H]1O[C@@H](n2cnc3c(OC)nc(N)nc32)[C@](C)(N)[C@@H]1O)Oc1ccccc1 (some centres unmarked) [drawing 225] |  | 32 |
| CC(C)OC(=O)[C@H](C)NP(=O)(OC[C@H]1O[C@@H](n2ccc(=O)[nH]c2=O)[C@](C)(N)[C@@H]1O)Oc1ccccc1 (some centres unmarked) [drawing 226] |  | 30 |

From patent US9061041B2, “2′-substituted nucleoside derivatives and methods of use thereof for the treatment of viral diseases” (Merck Sharp & Dohme Corp., priority 2011, dated 2015)
